Source: PubChem BioAssay AID2060908 (Molecular Pharmacology Branch, DTP, NCI, 2025)
One block for each compound: values may come before it.

System: 186277-243-T-J2-PDC complex spheroids, viability
Assay: Anticancer human tumor 186277-243-T-J2-PDC patient-derived colon adenocarcinoma cell line growth inhibition [RAS]
Conditions: for IC50: curve of first compound; for viability, T/C: stronger effect = lower value
Outline: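 Agents were tested in combination matrices in half-log decrements from a top concentration at or near clinical Cmax (10 microM if undetermined). Targets were multi-cell spheroids of tumour lines plus HUVEC and MSC stromal cells.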

[1] = second compound 0.00316 µM, first compound 0.0316 µM
[2] = second compound 0.00316 µM, first compound 0.1 µM
[3] = second compound 0.00316 µM, first compound 0.316 µM
[4] = second compound 0.00316 µM, first compound 1 µM
[5] = second compound 0.00316 µM, first compound 3.16 µM
[6] = second compound 0.00316 µM, first compound 10 µM
[7] = second compound 0.01 µM, first compound 0.0316 µM
[8] = second compound 0.01 µM, first compound 0.1 µM
[9] = second compound 0.01 µM, first compound 0.316 µM
[10] = second compound 0.01 µM, first compound 1 µM
[11] = second compound 0.01 µM, first compound 3.16 µM
[12] = second compound 0.01 µM, first compound 10 µM
[13] = second compound 0.0316 µM, first compound 0.0316 µM
[14] = second compound 0.0316 µM, first compound 0.1 µM
[15] = second compound 0.0316 µM, first compound 0.316 µM
[16] = second compound 0.0316 µM, first compound 1 µM
[17] = second compound 0.0316 µM, first compound 3.16 µM
[18] = second compound 0.0316 µM, first compound 10 µM
[19] = second compound 0.1 µM, first compound 0.0316 µM
[20] = second compound 0.1 µM, first compound 0.1 µM
[21] = second compound 0.1 µM, first compound 0.316 µM
[22] = second compound 0.1 µM, first compound 1 µM
[23] = second compound 0.1 µM, first compound 3.16 µM
[24] = second compound 0.1 µM, first compound 10 µM
[25] = second compound 0.316 µM, first compound 0.0316 µM
[26] = second compound 0.316 µM, first compound 0.1 µM
[27] = second compound 0.316 µM, first compound 0.316 µM
[28] = second compound 0.316 µM, first compound 1 µM
[29] = second compound 0.316 µM, first compound 3.16 µM
[30] = second compound 0.316 µM, first compound 10 µM
[31] = second compound 1 µM, first compound 0.0316 µM
[32] = second compound 1 µM, first compound 0.1 µM
[33] = second compound 1 µM, first compound 0.316 µM
[34] = second compound 1 µM, first compound 1 µM
[35] = second compound 1 µM, first compound 3.16 µM
[36] = second compound 1 µM, first compound 10 µM
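Further: spheroids exposed to compounds for 7 days before viability read.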

IC50 (second compound 0.00316 µM): < 31.6 nM
IC50 (second compound 0.01 µM): < 31.6 nM
IC50 (second compound 0.0316 µM): < 31.6 nM
IC50 (second compound 0.1 µM): < 31.6 nM
IC50 (second compound 0.316 µM): < 31.6 nM
IC50 (second compound 1 µM): < 31.6 nM
Compound: CC(=O)OC12COC1CC(O)C1(C)C(=O)C(O)C3=C(C)C(OC(=O)C(O)C(NC(=O)OC(C)(C)C)c4ccccc4)CC(O)(C(OC(=O)c4ccccc4)C21)C3(C)C (stereo not drawn) + C=CC(=O)N1CCN(c2nc(OCC3CCCN3C)nc3c(F)c(-c4nc(N)cc(C)c4C(F)(F)F)c(Cl)cc23)C(C)C1
viability, T/C [1]: 8.38%
viability, T/C [2]: 7.03%
viability, T/C [3]: 7.44%
viability, T/C [4]: 6.91%
viability, T/C [5]: 7.11%
viability, T/C [6]: 7.02%
viability, T/C [7]: 8.84%
viability, T/C [8]: 6.99%
viability, T/C [9]: 7.34%
viability, T/C [10]: 7.25%
viability, T/C [11]: 7.21%
viability, T/C [12]: 6.02%
viability, T/C [13]: 8.72%
viability, T/C [14]: 7.79%
viability, T/C [15]: 7.18%
viability, T/C [16]: 7.01%
viability, T/C [17]: 6.46%
viability, T/C [18]: 5.97%
viability, T/C [19]: 8.28%
viability, T/C [20]: 7.95%
viability, T/C [21]: 8.02%
viability, T/C [22]: 7.09%
viability, T/C [23]: 8.08%
viability, T/C [24]: 6.87%
viability, T/C [25]: 8.75%
viability, T/C [26]: 8.38%
viability, T/C [27]: 10.2%
viability, T/C [28]: 8.18%
viability, T/C [29]: 8.14%
viability, T/C [30]: 6.78%
viability, T/C [31]: 12%
viability, T/C [32]: 9.42%
viability, T/C [33]: 9.31%
viability, T/C [34]: 8.34%
viability, T/C [35]: 11.8%
viability, T/C [36]: 9.17%

IC50 (second compound 0.00316 µM): 18 nM
IC50 (second compound 0.01 µM): 15.4 nM
IC50 (second compound 0.0316 µM): 28.9 nM
IC50 (second compound 0.1 µM): 22.6 nM
IC50 (second compound 0.316 µM): 26.2 nM
IC50 (second compound 1 µM): 27.5 nM
Compound: CCc1c2c(nc3ccc(O)cc13)-c1cc3c(c(=O)n1C2)COC(=O)[C@]3(O)CC + C=CC(=O)N1CCN(c2nc(OCC3CCCN3C)nc3c(F)c(-c4nc(N)cc(C)c4C(F)(F)F)c(Cl)cc23)C(C)C1
viability, T/C (second compound 0.00316 µM, first compound 0.000949 µM): 115%
viability, T/C (second compound 0.00316 µM, first compound 0.003 µM): 94.9%
viability, T/C (second compound 0.00316 µM, first compound 0.00949 µM): 61.3%
viability, T/C (second compound 0.00316 µM, first compound 0.03 µM): 40.9%
viability, T/C (second compound 0.00316 µM, first compound 0.0949 µM): 22.4%
viability, T/C (second compound 0.00316 µM, first compound 0.3 µM): 14.9%
viability, T/C (second compound 0.01 µM, first compound 0.000949 µM): 120%
viability, T/C (second compound 0.01 µM, first compound 0.003 µM): 87.5%
viability, T/C (second compound 0.01 µM, first compound 0.00949 µM): 55%
viability, T/C (second compound 0.01 µM, first compound 0.03 µM): 40.1%
viability, T/C (second compound 0.01 µM, first compound 0.0949 µM): 25.7%
viability, T/C (second compound 0.01 µM, first compound 0.3 µM): 14.2%
viability, T/C (second compound 0.0316 µM, first compound 0.000949 µM): 110%
viability, T/C (second compound 0.0316 µM, first compound 0.003 µM): 95.6%
viability, T/C (second compound 0.0316 µM, first compound 0.00949 µM): 68.7%
viability, T/C (second compound 0.0316 µM, first compound 0.03 µM): 56.6%
viability, T/C (second compound 0.0316 µM, first compound 0.0949 µM): 21.8%
viability, T/C (second compound 0.0316 µM, first compound 0.3 µM): 15.6%
viability, T/C (second compound 0.1 µM, first compound 0.000949 µM): 109%
viability, T/C (second compound 0.1 µM, first compound 0.003 µM): 98.1%
viability, T/C (second compound 0.1 µM, first compound 0.00949 µM): 68.7%
viability, T/C (second compound 0.1 µM, first compound 0.03 µM): 46%
viability, T/C (second compound 0.1 µM, first compound 0.0949 µM): 20.3%
viability, T/C (second compound 0.1 µM, first compound 0.3 µM): 13.7%
viability, T/C (second compound 0.316 µM, first compound 0.000949 µM): 89.2%
viability, T/C (second compound 0.316 µM, first compound 0.003 µM): 91.9%
viability, T/C (second compound 0.316 µM, first compound 0.00949 µM): 65.5%
viability, T/C (second compound 0.316 µM, first compound 0.03 µM): 51%
viability, T/C (second compound 0.316 µM, first compound 0.0949 µM): 24.5%
viability, T/C (second compound 0.316 µM, first compound 0.3 µM): 17.4%
viability, T/C (second compound 1 µM, first compound 0.000949 µM): 93.2%
viability, T/C (second compound 1 µM, first compound 0.003 µM): 76.1%
viability, T/C (second compound 1 µM, first compound 0.00949 µM): 73%
viability, T/C (second compound 1 µM, first compound 0.03 µM): 47.1%
viability, T/C (second compound 1 µM, first compound 0.0949 µM): 29%
viability, T/C (second compound 1 µM, first compound 0.3 µM): 17.5%

IC50 (second compound 0.00316 µM): > 10000 nM
IC50 (second compound 0.01 µM): > 10000 nM
IC50 (second compound 0.0316 µM): 9070 nM
IC50 (second compound 0.1 µM): 9170 nM
IC50 (second compound 0.316 µM): > 10000 nM
IC50 (second compound 1 µM): > 10000 nM
Compound: NC1c2ccccc2OC12CCN(c1cnc3c(N4CCCc5ncccc54)n[nH]c3n1)CC2 (stereo not drawn) + C=CC(=O)N1CCN(c2nc(OCC3CCCN3C)nc3c(F)c(-c4nc(N)cc(C)c4C(F)(F)F)c(Cl)cc23)C(C)C1
viability, T/C [1]: 83.8%
viability, T/C [2]: 94.6%
viability, T/C [3]: 101%
viability, T/C [4]: 75%
viability, T/C [5]: 64.4%
viability, T/C [6]: 50.3%
viability, T/C [7]: 100%
viability, T/C [8]: 109%
viability, T/C [9]: 100%
viability, T/C [10]: 67.9%
viability, T/C [11]: 72.6%
viability, T/C [12]: 57.6%
viability, T/C [13]: 95.5%
viability, T/C [14]: 108%
viability, T/C [15]: 89.6%
viability, T/C [16]: 79.4%
viability, T/C [17]: 82.1%
viability, T/C [18]: 45.8%
viability, T/C [19]: 85%
viability, T/C [20]: 96.7%
viability, T/C [21]: 77.4%
viability, T/C [22]: 80.7%
viability, T/C [23]: 84%
viability, T/C [24]: 47.3%
viability, T/C [25]: 108%
viability, T/C [26]: 110%
viability, T/C [27]: 88.7%
viability, T/C [28]: 85.3%
viability, T/C [29]: 84.3%
viability, T/C [30]: 52.4%
viability, T/C [31]: 112%
viability, T/C [32]: 92.5%
viability, T/C [33]: 79.6%
viability, T/C [34]: 88.7%
viability, T/C [35]: 78.5%
viability, T/C [36]: 45%

IC50 (second compound 0.00316 µM): 5.06 nM
IC50 (second compound 0.01 µM): 5.02 nM
IC50 (second compound 0.0316 µM): 4.55 nM
IC50 (second compound 0.1 µM): 4.41 nM
IC50 (second compound 0.316 µM): 4.45 nM
IC50 (second compound 1 µM): < 3.16 nM
Compound: Nc1ccn(C2OC(CO)C(O)C2(F)F)c(=O)n1 (stereo not drawn) + C=CC(=O)N1CCN(c2nc(OCC3CCCN3C)nc3c(F)c(-c4nc(N)cc(C)c4C(F)(F)F)c(Cl)cc23)C(C)C1
viability, T/C (second compound 0.00316 µM, first compound 0.00316 µM): 73.3%
viability, T/C (second compound 0.00316 µM, first compound 0.01 µM): 16.4%
viability, T/C [1]: 12.9%
viability, T/C [2]: 10.3%
viability, T/C [3]: 11.1%
viability, T/C [4]: 11.5%
viability, T/C (second compound 0.01 µM, first compound 0.00316 µM): 73.9%
viability, T/C (second compound 0.01 µM, first compound 0.01 µM): 14.4%
viability, T/C [7]: 10.9%
viability, T/C [8]: 10.2%
viability, T/C [9]: 9.07%
viability, T/C [10]: 11%
viability, T/C (second compound 0.0316 µM, first compound 0.00316 µM): 65.2%
viability, T/C (second compound 0.0316 µM, first compound 0.01 µM): 17.3%
viability, T/C [13]: 13.5%
viability, T/C [14]: 10.2%
viability, T/C [15]: 10.7%
viability, T/C [16]: 12.2%
viability, T/C (second compound 0.1 µM, first compound 0.00316 µM): 64.1%
viability, T/C (second compound 0.1 µM, first compound 0.01 µM): 15.2%
viability, T/C [19]: 11.7%
viability, T/C [20]: 11.3%
viability, T/C [21]: 10.1%
viability, T/C [22]: 11.8%
viability, T/C (second compound 0.316 µM, first compound 0.00316 µM): 64.3%
viability, T/C (second compound 0.316 µM, first compound 0.01 µM): 16%
viability, T/C [25]: 13.1%
viability, T/C [26]: 11.8%
viability, T/C [27]: 11.8%
viability, T/C [28]: 12.9%
viability, T/C (second compound 1 µM, first compound 0.00316 µM): 45.3%
viability, T/C (second compound 1 µM, first compound 0.01 µM): 18.9%
viability, T/C [31]: 17.2%
viability, T/C [32]: 14.1%
viability, T/C [33]: 13.5%
viability, T/C [34]: 14.8%
